Assay results from patent US9873696B2, “Neprilysin inhibitors” (THERAVANCE BIOPHARMA R&D IP, LLC, priority 2010, dated 2018).

molecular target: T1, human NEP (Homo sapiens, UniProt P08473); assay: In vitro enzyme inhibition assay at human NEP (Assay 1); format: biochemical; conditions: recombinant enzyme, fluorogenic peptide substrate, 37° C.
T1 construct: purchased R&D Systems, Minneapolis, Minn; 1182-ZN
Protocol: In Vitro Assays for the Quantitation of Inhibitor Potencies (IC50) at Human and Rat NEP, and Human ACE
The inhibitory activities of compounds at human and rat neprilysin (EC 3.4.24.11; NEP) and human angiotensin converting enzyme (ACE) were determined using in vitro assays as described below.
Recombinant human NEP and recombinant human ACE were obtained commercially (R&D Systems, Minneapolis, Minn., catalog numbers 1182-ZN and 929-ZN, respectively). The fluorogenic peptide substrate Mca-D-Arg-Arg-Leu-Dap-(Dnp)-OH (Medeiros et al. (1997) Braz. J. Med. Biol. Res. 30:1157-62; Anaspec, San Jose, Calif.) and Abz-Phe-Arg-Lys(Dnp)-Pro-OH (Araujo et al. (2000) Biochemistry 39:8519-8525; Bachem, Torrance, Calif.) were used in the NEP and ACE assays respectively.
The assays were performed in 384-well white opaque plates at 37° C. using the fluorogenic peptide substrates at a concentration of 10 μM in Assay Buffer (NEP: 50 mM HEPES, pH 7.5, 100 mM NaCl, 0.01% polyethylene glycol sorbitan monolaurate (Tween-20), 10 μM ZnSO4; ACE: 50 mM HEPES, pH 7.5, 100 mM NaCl, 0.01% Tween-20, 1 μM ZnSO4).
Test compounds were assayed over the range of concentrations from […] to 20 μM. Test compounds were added to the enzymes and incubated for 30 minute at 37° C. prior to initiating the reaction by the addition of substrate. Reactions were terminated after 20 minutes of incubation at 37° C. by the addition of glacial acetic acid to a final concentration of 3.6% (v/v).
Plates were read on a fluorometer with excitation and emission wavelengths set to 320 nm and 405 nm, respectively. Inhibition constants were obtained by nonlinear regression of the data using the equation (GraphPad Software, Inc., San Diego, Calif.): v=v0/[1+(I/K′)] where v is the reaction rate, v0 is the uninhibited reaction rate, I is the inhibitor concentration and K′ is the apparent inhibition constant.
Compounds of the invention were tested in this assay and found to have pKi values at human NEP as follows.

T1 sequence (P08473 whole entry): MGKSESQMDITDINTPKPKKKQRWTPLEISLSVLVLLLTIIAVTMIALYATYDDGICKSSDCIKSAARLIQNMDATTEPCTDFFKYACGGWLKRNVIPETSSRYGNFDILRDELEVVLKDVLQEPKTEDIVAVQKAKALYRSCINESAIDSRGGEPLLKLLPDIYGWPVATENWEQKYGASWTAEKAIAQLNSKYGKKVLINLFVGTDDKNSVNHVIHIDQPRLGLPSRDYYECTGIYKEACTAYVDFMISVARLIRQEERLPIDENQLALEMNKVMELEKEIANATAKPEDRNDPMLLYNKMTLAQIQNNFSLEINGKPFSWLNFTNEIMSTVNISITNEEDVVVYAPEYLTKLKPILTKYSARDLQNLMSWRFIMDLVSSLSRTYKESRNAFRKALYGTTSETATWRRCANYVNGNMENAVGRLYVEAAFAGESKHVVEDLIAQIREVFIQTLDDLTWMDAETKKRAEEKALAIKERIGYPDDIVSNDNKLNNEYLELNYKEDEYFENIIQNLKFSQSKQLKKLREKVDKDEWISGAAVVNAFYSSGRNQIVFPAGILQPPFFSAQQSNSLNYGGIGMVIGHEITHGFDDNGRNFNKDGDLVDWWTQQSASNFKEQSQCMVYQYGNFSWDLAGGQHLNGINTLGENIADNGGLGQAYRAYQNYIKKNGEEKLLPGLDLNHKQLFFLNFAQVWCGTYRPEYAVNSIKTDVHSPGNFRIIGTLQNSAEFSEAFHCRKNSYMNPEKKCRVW

Ki	Compound
≤ 1 nM	O=C(NN(Cc1ccc(-c2cc(Cl)ccc2F)cc1)C[C@@H](O)C(=O)O)c1nn(-c2ccccc2)c(=O)[nH]1 [Example 8-64, (R)-3-[N-(5′-Chloro-2′-fluoro-biphenyl-4-ylmethyl)-N′-(5-oxo-1-phenyl-4,5-dihydro-1H-[1,2,4]triazole-3-carbonyl)-hydrazino]-2-hydroxy-propionic acid]
≤ 1 nM	O=C(NN(Cc1ccc(-c2cc(Cl)ccc2F)cc1)C[C@@H](O)C(=O)O)c1cn(O)nn1 [Example 8-76, (R)-3-[N-(5′-Chloro-2′-fluoro-biphenyl-4-ylmethyl)-N′-(1-hydroxy-1H-[1,2,3]triazole-4-carbonyl)-hydrazino]-2-hydroxy-propionic acid]
≤ 1 nM	O=C(NN(Cc1ccc(-c2cc(Cl)ccc2F)cc1Cl)C[C@@H](O)C(=O)O)c1c[nH]nn1 [Example 10-10, (R)-3-[N-(3,5′-Dichloro-2′-fluoro-biphenyl-4-ylmethyl)-N′-(1H-[1,2,3]triazole-4-carbonyl)-hydrazino]-2-hydroxy-propionic acid]
≤ 1 nM	CCCCc1cc(C(=O)NN(Cc2ccc(-c3cc(Cl)ccc3F)cc2)C[C@@H](O)C(=O)O)[nH]n1 [Example 8-42, (R)-3-[N′-(5-Butyl-2H-pyrazole-3-carbonyl)-N-(5′-chloro-2′-fluoro-biphenyl-4-ylmethyl)-hydrazino]-2-hydroxy-propionic acid]
≤ 1 nM	O=C(NN(Cc1ccc(-c2cccc(Cl)c2)c(F)c1)C[C@@H](O)C(=O)O)c1cc(O)no1 [Example 10-6, (R)-3-[N-(3′-Chloro-2-fluoro-biphenyl-4-ylmethyl)-N′-(3-hydroxy-isoxazole-5-carbonyl)-hydrazino]-2-hydroxy-propionic acid]
1.26 to 10 nM	CC(C)c1cc(C(=O)NN(Cc2ccc(-c3cc(Cl)ccc3F)cc2)C[C@@H](O)C(=O)O)nn1CC(=O)O [Example 8-54, (R)-3-[N′-(1-Carboxymethyl-5-isopropyl-1H-pyrazole-3-carbonyl)-N-(5′-chloro-2′-fluoro-biphenyl-4-ylmethyl)-hydrazino]-2-hydroxy-propionic acid]
1.26 to 10 nM	O=C(NN(Cc1ccc(-c2cc(Cl)ccc2F)cc1)C[C@@H](O)C(=O)O)c1cc(-c2cccnc2)on1 [Example 8-34, (R)-3-[N-(5′-Chloro-2′-fluoro-biphenyl-4-ylmethyl)-N′-(5-pyridin-3-yl-isoxazole-3-carbonyl)-hydrazino]-2-hydroxy-propionic acid]
≤ 1 nM	CCc1cc(C(=O)NN(Cc2ccc(-c3cc(Cl)ccc3F)cc2)C[C@@H](O)C(=O)O)on1 [Example 8-14, (R)-3-[N-(5′-Chloro-2′-fluoro-biphenyl-4-ylmethyl)-N′-(3-ethyl-isoxazole-5-carbonyl)-hydrazino]-2-hydroxy-propionic acid]
1.26 to 10 nM	CCCCc1cc(C(=O)NN(Cc2ccc(-c3cc(Cl)ccc3F)cc2)C[C@@H](O)C(=O)O)nn1CC(=O)O [Example 8-55, (R)-3-[N′-(5-Butyl-1-carboxymethyl-1H-pyrazole-3-carbonyl)-N-(5′-chloro-2′-fluoro-biphenyl-4-ylmethyl)-hydrazino]-2-hydroxy-propionic acid]

More lines, now with the values behind:

Compound	Ki
O=C(NN(Cc1ccc(-c2cccc(Cl)c2)cc1)C[C@@H](O)C(=O)O)c1nc(Cl)n[nH]1 [Example 4-1, (R)-3-[N-(3′-Chlorobiphenyl-4-ylmethyl)-N′-(5-chloro-2H-[1,2,4]triazole-3-carbonyl)-hydrazino]-2-hydroxy-propionic acid]	1.26 to 10 nM
O=C(NN(Cc1ccc(-c2ccccc2)cc1)C[C@@H](O)C(=O)O)c1cc(F)c2[nH]nnc2c1 [Example 2-23, (R)-3-[N-Biphenyl-4-ylmethyl-N′-(7-fluoro-1H-benzotriazole-5-carbonyl)-hydrazino]-2-hydroxypropionic acid]	126 to 1000 nM
O=C(NN(Cc1ccc(-c2cccc(Cl)c2)cc1)C[C@@H](O)C(=O)O)c1ccnc(O)n1 [Example 4-37, (R)-3-[N-(3′-Chlorobiphenyl-4-ylmethyl)-N′-(2-hydroxy-pyrimidine-4-carbonyl)-hydrazino]-2-hydroxy-propionic acid]	12.6 to 100 nM
O=C(NN(Cc1ccc(-c2cccc(C(F)(F)F)c2)cc1)C[C@@H](O)C(=O)O)c1cc(O)no1 [Example 5-2, (R)-2-Hydroxy-3-[N′-(3-hydroxy-isoxazole-5-carbonyl)-N-(3′-trifluoromethyl-biphenyl-4-ylmethyl)-hydrazino]-propionic acid]	12.6 to 100 nM
O=C(NN(Cc1ccc(-c2cccc(Cl)c2)cc1)C[C@@H](O)C(=O)O)c1cn(O)nn1 [Example 4-4, (R)-3-[N-(3′-Chlorobiphenyl-4-ylmethyl)-N′-(1-hydroxy-1H-[1,2,3]triazole-4-carbonyl)-hydrazino]-2-hydroxy-propionic acid]	≤ 1 nM
O=C(NN(Cc1ccc(-c2ccccc2)cc1)C[C@@H](O)C(=O)O)c1cc(C(=O)N2CCCC2)n[nH]1 [Example 2-9, (R)-3-{N-Biphenyl-4-ylmethyl-N′-[5-(pyrrolidine-1-carbonyl)-2H-pyrazole-3-carbonyl]hydrazino}-2-hydroxypropionic acid]	1.26 to 10 nM
O=C(NC1CC1)c1cc(C(=O)NN(Cc2ccc(-c3ccccc3)cc2)C[C@@H](O)C(=O)O)[nH]n1 [Example 2-4, (R)-3-[N-Biphenyl-4-ylmethyl-N′-(5-cyclopropylcarbamoyl-2H-pyrazole-3-carbonyl)-hydrazino]-2-hydroxypropionic acid]	12.6 to 100 nM
O=C(NCCO)c1cc(C(=O)NN(Cc2ccc(-c3ccccc3)cc2)C[C@@H](O)C(=O)O)[nH]n1 [Example 2-2, (R)-3-{N-Biphenyl-4-ylmethyl-N′-[5-(2-hydroxyethylcarbamoyl)-2H-pyrazole-3-carbonyl]hydrazino}-2-hydroxypropionic acid]	1.26 to 10 nM
O=C(NN(Cc1ccc(-c2cccc(Cl)c2)cc1)C[C@@H](O)C(=O)O)c1cc(C(=O)N2CC[C@@H](O)C2)n[nH]1 [Example 4-14, (R)-3-{N-(3′-Chlorobiphenyl-4-ylmethyl)-N′-[5-((R)-3-hydroxy-pyrrolidine-1-carbonyl)-2H-pyrazole-3-carbonyl]-hydrazino}-2-hydroxy-propionic acid]	≤ 1 nM
O=C(NN(Cc1ccc(-c2ccccc2)cc1)C[C@H](O)C(=O)O)c1cc(F)c2[nH]nnc2c1 [Example 2-24, (S)-3-[N-Biphenyl-4-ylmethyl-N′-(7-fluoro-1H-benzotriazole-5-carbonyl)-hydrazino]-2-hydroxypropionic acid]	126 to 1000 nM
Cc1cccc(-c2ccc(CN(C[C@H](O)C(=O)O)NC(=O)c3cc(O)no3)cc2)c1 [Example 5-4, (S)-2-Hydroxy-3-[N′-(3-hydroxy-isoxazole-5-carbonyl)-N-(3′-methyl-biphenyl-4-ylmethyl)-hydrazino]-propionic acid]	≤ 1 nM
O=C(NN(Cc1ccc(-c2ccccc2)cc1)C[C@@H](O)C(=O)O)c1cc(C(=O)N2CCCCC2)n[nH]1 [Example 2-14, (R)-3-{N-Biphenyl-4-ylmethyl-N′-[5-(piperidine-1-carbonyl)-2H-pyrazole-3-carbonyl]hydrazino}-2-hydroxypropionic acid]	12.6 to 100 nM
CCCCc1cc(C(=O)NN(Cc2ccc(-c3cccc(Cl)c3)cc2)C[C@@H](O)C(=O)O)[nH]n1 [Example 4-22, (R)-3-[N′-(5-Butyl-2H-pyrazole-3-carbonyl)-N-(3′-chlorobiphenyl-4-ylmethyl)-hydrazino]-2-hydroxy-propionic acid]	≤ 1 nM
